According to ChEMBL document CHEMBL4477208, “Discovery and Rational Design of Pteridin-7(8H)-one-Based Inhibitors Targeting FMS-like Tyrosine Kinase 3 (FLT3) and Its Mutants” (J Med Chem, 2016):

What was measured:
MV4-11 [1] = assay: Cell cycle arrest in human MV4-11 cells assessed as accumulation at G2 phase at 1 nM after 48 hrs by PI/RNase staining based FACS analysis (reference value: 13.95%); type: functional
MV4-11 [2] = assay: Cell cycle arrest in human MV4-11 cells assessed as accumulation at G2 phase at 100 nM after 48 hrs by PI/RNase staining based FACS analysis (reference value: 13.95%); type: functional
MV4-11 [3] = assay: Cell cycle arrest in human MV4-11 cells assessed as accumulation at G2 phase at 1000 nM after 48 hrs by PI/RNase staining based FACS analysis (reference value: 13.95%); type: functional
MV4-11 [4] = assay: Cell cycle arrest in human MV4-11 cells assessed as accumulation at G0/G1 phase after 48 hrs by PI/RNase staining based FACS analysis; type: functional
MV4-11 [5] = assay: Induction of apoptosis in human MV4-11 cells assessed as necrotic cells at 1000 nM after 48 hrs by annexin V/propidium iodide staining based FACS analysis (reference value: 0.05%); type: functional
MV4-11 [6] = assay: Induction of apoptosis in human MV4-11 cells assessed as early apoptotic cells at 10000 nM after 48 hrs by annexin V/propidium iodide staining based FACS analysis (reference value: 6.31%); type: functional
[7] = Volume of distribution at steady state in overnight fasted Sprague-Dawley rat plasma at 1 mg/kg, iv up to 24 hrs by LC-MS/MS analysis; type: ADME, organism-based; conditions: read-out: Vdss
[8] = Tmax in overnight fasted Sprague-Dawley rat plasma at 10 mg/kg administered via oral gavage up to 24 hrs by LC-MS/MS analysis; type: ADME, organism-based
[9] = Oral bioavailability in overnight fasted Sprague-Dawley rat plasma at 10 mg/kg administered via oral gavage up to 24 hrs by LC-MS/MS analysis; type: ADME, organism-based
MV4-11 [10] = assay: Antiproliferative activity against human MV4-11 cells after 72 hrs by MTT assay; type: functional, cell-based; conditions: MV4-11, 72 h
THP-1 = assay: Antiproliferative activity against human THP1 cells after 72 hrs by MTT assay; type: functional, cell-based; conditions: THP-1, 72 h
RS4-11 = assay: Antiproliferative activity against human RS4:11 cells after 72 hrs by MTT assay; type: functional, cell-based; conditions: RS4-11, 72 h
HCT-116 = assay: Antiproliferative activity against human HCT116 cells after 72 hrs by SRB assay; type: functional, cell-based; conditions: HCT-116, 72 h
HT-29 = assay: Antiproliferative activity against human HT-29 cells after 72 hrs by SRB assay; type: functional, cell-based; conditions: HT-29, 72 h
MV4-11 [11] = assay: Antitumor activity against human MV4-11 cells xenografted in nude BALB/c mouse assessed as tumor growth inhibition administered orally qd for 14 days measured every 2 days; type: functional
[12] = molecular target: T1, Receptor-type tyrosine-protein kinase FLT3 (Homo sapiens, UniProt P36888); assay: Binding affinity to human partial length wild type FLT3 (592 to 969 residues) expressed in bacterial expression system after 1 hr
T1 sequence (P36888 whole entry): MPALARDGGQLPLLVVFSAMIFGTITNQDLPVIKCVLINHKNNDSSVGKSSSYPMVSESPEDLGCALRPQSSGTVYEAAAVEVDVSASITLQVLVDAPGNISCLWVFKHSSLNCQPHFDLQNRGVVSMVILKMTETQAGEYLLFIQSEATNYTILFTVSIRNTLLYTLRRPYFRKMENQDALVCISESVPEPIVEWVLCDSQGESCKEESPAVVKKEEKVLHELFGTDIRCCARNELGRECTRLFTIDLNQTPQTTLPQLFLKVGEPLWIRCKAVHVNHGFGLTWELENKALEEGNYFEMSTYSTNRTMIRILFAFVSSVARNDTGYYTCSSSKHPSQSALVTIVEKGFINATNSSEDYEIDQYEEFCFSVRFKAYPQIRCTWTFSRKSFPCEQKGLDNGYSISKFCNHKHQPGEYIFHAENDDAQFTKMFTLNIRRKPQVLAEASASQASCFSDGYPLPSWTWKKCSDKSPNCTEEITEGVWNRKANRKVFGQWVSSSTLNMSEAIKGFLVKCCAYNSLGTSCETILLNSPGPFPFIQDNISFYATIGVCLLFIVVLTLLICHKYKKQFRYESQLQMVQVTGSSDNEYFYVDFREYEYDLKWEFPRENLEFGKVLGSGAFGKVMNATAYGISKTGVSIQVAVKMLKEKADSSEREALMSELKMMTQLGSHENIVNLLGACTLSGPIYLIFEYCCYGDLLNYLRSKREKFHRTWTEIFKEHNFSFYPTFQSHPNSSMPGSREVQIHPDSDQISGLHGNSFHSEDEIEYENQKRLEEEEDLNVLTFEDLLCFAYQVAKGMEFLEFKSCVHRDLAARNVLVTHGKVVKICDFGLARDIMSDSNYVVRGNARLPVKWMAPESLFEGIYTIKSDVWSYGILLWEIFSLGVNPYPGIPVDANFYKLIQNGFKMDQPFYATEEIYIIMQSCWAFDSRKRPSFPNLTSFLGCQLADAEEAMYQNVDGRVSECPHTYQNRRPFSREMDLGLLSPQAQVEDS

[13] = molecular target: Receptor-type tyrosine-protein kinase FLT3 (Homo sapiens, UniProt P36888, D835H); assay: Binding affinity to human partial length FLT3 D835H mutant (592 to 969 residues) expressed in bacterial expression system after 1 hr
[14] = molecular target: Receptor-type tyrosine-protein kinase FLT3 (Homo sapiens, UniProt P36888, D835Y); assay: Binding affinity to human partial length FLT3 D835Y mutant (580 to 969 residues) expressed in bacterial expression system after 1 hr
[15] = molecular target: Receptor-type tyrosine-protein kinase FLT3 (Homo sapiens, UniProt P36888, F691L/ITD); assay: Binding affinity to human partial length FLT3 ITD/F691L mutant expressed in mammalian expression system after 1 hr
MV4-11 [16] = assay: Cell cycle arrest in human MV4-11 cells assessed as cell debris level at 100 nM after 48 hrs by PI/RNase staining based FACS analysis; type: functional
MV4-11 [17] = assay: Cell cycle arrest in human MV4-11 cells assessed as cell debris level at 1000 nM after 48 hrs by PI/RNase staining based FACS analysis; type: functional
[18] = molecular target: Dual specificity mitogen-activated protein kinase kinase 5 (Homo sapiens) (UniProt Q13163); assay: Inhibition of human MEK5 expressed in mammalian system assessed as remaining enzyme activity at 1 uM relative to untreated control
[19] = tested on: Receptor-type tyrosine-protein kinase FLT3 (Homo sapiens), P36888 [UNDEFINED MUTATION]; assay: Inhibition of human FLT3 ITD/F691L mutant expressed in mammalian system assessed as remaining enzyme activity at 1 uM relative to untreated control
[20] = tested on: Receptor-type tyrosine-protein kinase FLT3 (Homo sapiens), P36888 [UNDEFINED MUTATION]; assay: Inhibition of human FLT3 ITD mutant expressed in bacterial system assessed as remaining enzyme activity at 1 uM relative to untreated control
[21] = molecular target: T1, Receptor-type tyrosine-protein kinase FLT3
Description: Inhibition of human N-terminal GST-tagged FLT3 (564 to 993 residues) expressed in baculovirus expression system using peptide FAM-P2 as substrate incubated for 10 mins followed by substrate addition by mobility shift assay

WI-38 = assay: cells; conditions: Homo sapiens, WI-38, 72 h
Description: Antiproliferative activity against human WI38 cells after 72 hrs by SRB assay

MV4-11 [22] = assay: animal or person; conditions: Mus musculus, MV4-11, po, read-out: TGI
Description: Antitumor activity against human MV4-11 cells xenografted in nude BALB/c mouse assessed as tumor growth inhibition at 10 mg/kg, po qd for 14 days measured every 2 days

Dual specificity mitogen-activated protein kinase kinase 5 (Homo sapiens), sequence (Q13163 whole entry): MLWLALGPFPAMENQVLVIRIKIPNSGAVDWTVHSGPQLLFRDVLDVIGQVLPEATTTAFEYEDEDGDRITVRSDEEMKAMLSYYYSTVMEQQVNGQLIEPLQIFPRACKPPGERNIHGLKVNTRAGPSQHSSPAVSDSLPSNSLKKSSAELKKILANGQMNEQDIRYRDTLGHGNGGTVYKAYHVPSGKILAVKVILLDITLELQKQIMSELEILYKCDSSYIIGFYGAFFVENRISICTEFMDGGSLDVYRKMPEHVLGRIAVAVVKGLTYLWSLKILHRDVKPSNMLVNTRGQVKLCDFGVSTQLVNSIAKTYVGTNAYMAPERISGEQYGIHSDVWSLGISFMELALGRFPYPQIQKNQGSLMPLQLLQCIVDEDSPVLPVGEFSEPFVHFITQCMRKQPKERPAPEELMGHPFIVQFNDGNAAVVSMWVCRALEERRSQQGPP

SMILES: Cc1cc(Nc2ncc3ncc(=O)n(-c4ccc(N)cc4)c3n2)ccc1N1CCN(C)CC1
- Activity (MV4-11 [1]): 12.59%
- Activity (MV4-11 [2]): 0%
- Activity (MV4-11 [3]): 0%
- Activity (MV4-11 [4]): Dose-dependent effect
- Activity (MV4-11 [5]): 0.05%
- Activity (MV4-11 [6]): 68.6%
- Vd [7]: 27.7 L/kg
- Tmax [8]: 2.17 h
- bioavailability [9]: 26.4%
- IC50 (MV4-11 [10]): 51 nM
- IC50 (THP-1): > 10000 nM
- IC50 (RS4-11): 925 nM
- IC50 (HCT-116): 2360 nM
- IC50 (HT-29): 3020 nM
- TGI (MV4-11 [11]): Dose-dependent effect
- Kd [12]: 5 nM
- Kd [13]: 1.8 nM
- Kd [14]: 2 nM
- Kd [15]: 5.7 nM
- Activity (MV4-11 [16]): 12.02%
- Activity (MV4-11 [17]): 16.38%
- Activity [18]: < 1%
- Activity [19]: < 1%
- Activity [20]: < 1%
- IC50 [21]: 1.56 nM
- IC50 (WI-38): 4120 nM
- inhibition in vivo at 10 mg/kg (MV4-11 [22]): 28%
